# ChEMBL document CHEMBL6103537 (J Med Chem, 2025)
# Calls of active or inactive are those of the source. The calls are words filed in the database; no cut-off is given here.
# How the values were obtained:
# [1] = Metabolic stability in human liver microsome assessed as half life measured upto 60 mins in presence of NADPH by LC-MS/MS analysis; assay type: ADME; conditions: liver microsomes
# [2] = Stability in human plasma assessed as parent compound remaining measured at 5 mins by LC-MS/MS analysis; assay type: ADME, cell-free; conditions: read-out: Stability
# [3] = Downregulation of KRT1 level in human PBMC cells at 5 uM incubated for 18 hrs by Western blot analysis relative to control; assay type: functional
# [4] = Stability in monkey plasma assessed as parent compound remaining measured at 5 mins by LC-MS/MS analysis; assay type: ADME, cell-free, Macaca mulatta; conditions: rhesus monkey, read-out: Stability
# [5] = system: PBMC; assay: Downregulation of STAT4 level in human PBMC cells at 5 uM incubated for 18 hrs by Western blot analysis relative to control; assay type: functional, cell-based
# [6] = Stability in dog plasma assessed as parent compound remaining measured at 5 mins by LC-MS/MS analysis; assay type: ADME, cell-free, Canis lupus familiaris; conditions: read-out: Stability
# [7] = target: T1, Protein cereblon/Signal transducer and activator of transcription 6 (Homo sapiens, UniProt P42226+Q96SW2); assay: PROTAC activity at STAT6/CRBN in human MV4-11 cells assessed as reduction in STAT6 level at 2 uM measured upto 1200 mins in presence of lenalidomide by HiBiT bioluminescence assay; assay type: cell-based; conditions: Jurkat
# [8] = target: T1, Protein cereblon/Signal transducer and activator of transcription 6; assay: PROTAC activity at STAT6 at Y641 residue/CRBN in human L-1236 cells assessed as reduction in STAT6 level at 10 uM incubated for 24 hrs by Western blot analysis; assay type: cell-based
# [9] = Stability in rat plasma assessed as parent compound remaining measured at 15 mins by LC-MS/MS analysis; assay type: ADME, cell-free; conditions: read-out: Stability
# [10] = Metabolic stability in mouse liver microsome assessed as parent compound remaining measured at 15 mins in presence of NADPH by LC-MS/MS analysis; assay type: ADME; conditions: liver microsomes, read-out: Stability
# [11] = Stability in mouse plasma assessed as parent compound remaining measured at 5 mins by LC-MS/MS analysis; assay type: ADME, cell-free; conditions: read-out: Stability
# [12] = Metabolic stability in mouse liver microsome assessed as parent compound remaining measured at 5 mins in presence of NADPH by LC-MS/MS analysis; assay type: ADME; conditions: liver microsomes, read-out: Stability
# [13] = Stability in dog plasma assessed as parent compound remaining measured at 60 mins by LC-MS/MS analysis; assay type: ADME, cell-free, Canis lupus familiaris; conditions: read-out: Stability
# [14] = Metabolic stability in rat liver microsome assessed as parent compound remaining measured at 15 mins in presence of NADPH by LC-MS/MS analysis; assay type: ADME; conditions: liver microsomes, read-out: Stability
# [15] = Stability in dog plasma assessed as parent compound remaining measured at 15 mins by LC-MS/MS analysis; assay type: ADME, cell-free, Canis lupus familiaris; conditions: read-out: Stability
# [16] = target: T2, Protein cereblon/Signal transducer and activator of transcription 4 (Homo sapiens) (UniProt Q96SW2+Q14765); assay: PROTAC activity at STAT4/CRBN in human MV4-11 cells assessed as reduction in STAT4 level at 10 uM incubated for 12 hrs by Western blot analysis; assay type: cell-based
# [17] = target: T2, Protein cereblon/Signal transducer and activator of transcription 4 (Homo sapiens); assay: PROTAC activity at STAT4/CRBN in human L-1236 cells assessed as reduction in STAT4 level at 10 uM incubated for 24 hrs by Western blot analysis; assay type: cell-based
# [18] = Stability in human plasma assessed as parent compound remaining measured at 15 mins by LC-MS/MS analysis; assay type: ADME, cell-free; conditions: read-out: Stability
# [19] = target: Protein cereblon/Signal transducer and activator of transcription 2 (Homo sapiens) (UniProt Q96SW2+P52630); assay: PROTAC activity at STAT2/CRBN in human MV4-11 cells assessed as reduction in STAT2 level at 10 uM incubated for 12 hrs by Western blot analysis relative to control; assay type: cell-based
# [20] = Stability in rat plasma assessed as half life measured upto 60 mins by LC-MS/MS analysis; assay type: ADME, cell-free
# [21] = target: T3, Protein cereblon/Signal transducer and activator of transcription 1-alpha/beta (Homo sapiens) (UniProt P42224+Q96SW2); assay: PROTAC activity at STAT1/CRBN in human PBMC cells assessed as reduction in STAT1 level at 10 uM incubated for 18 hrs by Western blot analysis relative to control; assay type: cell-based
# [22] = Metabolic stability in human liver microsome assessed as parent compound remaining measured at 5 mins in presence of NADPH by LC-MS/MS analysis; assay type: ADME; conditions: liver microsomes, read-out: Stability
# [23] = target: T1, Protein cereblon/Signal transducer and activator of transcription 6; assay: PROTAC activity at STAT6/CRBN in human MV4-11 cells assessed as reduction in STAT6 level incubated for 12 hrs by Western blot analysis; assay type: cell-based
# [24] = Metabolic stability in monkey liver microsome assessed as parent compound remaining measured at 15 mins in presence of NADPH by LC-MS/MS analysis; assay type: ADME, Macaca mulatta; conditions: rhesus monkey, liver microsomes, read-out: Stability
# [25] = system: PBMC; assay: Downregulation of STAT5 level in human PBMC cells at 5 uM incubated for 18 hrs by Western blot analysis relative to control; assay type: functional, cell-based
# [26] = Stability in rat plasma assessed as parent compound remaining measured at 30 mins by LC-MS/MS analysis; assay type: ADME, cell-free; conditions: read-out: Stability
# [27] = target: Protein cereblon/Signal transducer and activator of transcription 5A/Signal transducer and activator of transcription 5B (Homo sapiens) (UniProt P42229+P51692+Q96SW2); assay: PROTAC activity at STAT5/CRBN in human MV4-11 cells assessed as reduction in STAT5 level at upto 10 uM incubated for 12 hrs by Western blot analysis; assay type: cell-based
# [28] = target: Protein cereblon/Zinc finger protein Aiolos (Homo sapiens) (UniProt Q96SW2+Q9UKT9); assay: PROTAC activity at CRBN/IKZF3 in human Jurkat cells assessed as degradation of IKZF3 protein at 0.01 to 10 uM incubated for 20 hrs by Western blotting analysis; assay type: cell-based; conditions: dose 0.01-10 µM
# [29] = Stability in mouse plasma assessed as parent compound remaining measured at 15 mins by LC-MS/MS analysis; assay type: ADME, cell-free; conditions: read-out: Stability
# [30] = Metabolic stability in rat liver microsome assessed as half life measured upto 60 mins in presence of NADPH by LC-MS/MS analysis; assay type: ADME; conditions: liver microsomes
# [31] = Stability in mouse plasma assessed as parent compound remaining measured at 120 mins by LC-MS/MS analysis; assay type: ADME, cell-free; conditions: read-out: Stability
# [32] = Stability in monkey plasma assessed as parent compound remaining measured at 15 mins by LC-MS/MS analysis; assay type: ADME, cell-free, Macaca mulatta; conditions: rhesus monkey, read-out: Stability
# [33] = target: T1, Protein cereblon/Signal transducer and activator of transcription 6; assay: PROTAC activity at STAT6/CRBN in human PBMC cells assessed as reduction in STAT6 level at 5 uM incubated for 18 hrs by Western blot analysis relative to control; assay type: cell-based; parameters: scale not given: the % may be the effect or the level left
# [34] = target: T3, Protein cereblon/Signal transducer and activator of transcription 1-alpha/beta (Homo sapiens); assay: PROTAC activity at STAT1/CRBN in human L-1236 cells assessed as reduction in STAT1 level at 10 uM incubated for 24 hrs by Western blot analysis; assay type: cell-based
# [35] = target: T3, Protein cereblon/Signal transducer and activator of transcription 1-alpha/beta (Homo sapiens); assay: PROTAC activity at STAT1/CRBN in human MV4-11 cells assessed as reduction in STAT1 level at upto 10 uM incubated for 12 hrs by Western blot analysis; assay type: cell-based
# [36] = target: T1, Protein cereblon/Signal transducer and activator of transcription 6; assay: PROTAC activity at STAT6 at Y641 residue/CRBN in human L-1236 cells assessed as reduction in STAT6 level incubated for 24 hrs by Western blot analysis; assay type: cell-based; conditions: dose 10.0 µM
# [37] = Metabolic stability in monkey liver microsome assessed as parent compound remaining measured at 45 mins in presence of NADPH by LC-MS/MS analysis; assay type: ADME, Macaca mulatta; conditions: rhesus monkey, liver microsomes, read-out: Stability
smiles,measurement,setting,value
CC(C)(C)[C@H](NC(=O)c1cc2cc(C(F)(F)P(=O)(O)O)ccc2s1)C(=O)N1C[C@@H](OCCCCCC#Cc2cccc3c2CN(C2CCC(=O)NC2=O)C3=O)C[C@H]1C(=O)N1CCO[C@H](c2ccccc2)C1 (some centres not stated),half-life,[1],> 2 h
same,remaining at 5 min,[2],79%
same,Activity,[3],59%
same,remaining at 5 min,[4],82%
same,Activity,[5],inactive
same,remaining at 5 min,[6],82%
same,Activity,[7],Active
same,Activity,[8],No effect
same,remaining at 0.25 h,[9],96%
same,remaining at 0.25 h,[10],98%
same,remaining at 5 min,[11],102%
same,remaining at 5 min,[12],98%
same,remaining at 1 h,[13],69%
same,remaining at 0.25 h,[14],98%
same,remaining at 0.25 h,[15],87%
same,Activity,[16],inactive
same,Activity,[17],No effect
same,remaining at 0.25 h,[18],94%
same,Emax,[19],< 40%
same,half-life,[20],> 2 h
same,Activity,[21],No effect
same,remaining at 5 min,[22],94%
same,DC50,[23],1 nM
same,remaining at 0.25 h,[24],83%
same,Activity,[25],inactive
same,remaining at 0.5 h,[26],85%
same,Activity,[27],No effect
same,Activity,[28],No effect
same,remaining at 0.25 h,[29],100%
same,half-life,[30],> 2 h
same,remaining at 2 h,[31],79%
same,remaining at 0.25 h,[32],111%
same,Activity,[33],79%
same,Activity,[34],No effect
same,Activity,[35],No effect
same,Activity,[36],Dose-dependent-effect
same,remaining at 0.75 h,[37],61%
